From patent US10544126B2, “Sulfonyl piperidine derivatives and their use for treating prokineticin mediated diseases” (TAKEDA PHARMACEUTICAL COMPANY LIMITED, priority 2012, dated 2020)

Target: human PKR1 receptors (Homo sapiens (Human), UniProt Q8TCW9)
Assay: PKR1 antagonist assay: block of PK1-mediated intracellular calcium release (FLIPR)
Type: cell-based
Settings: antagonist activity; RBL2H3 cells expressing human PKR1; stimulation with PK1 at EC80; calcium fluorescence
Protocol: Prokineticin receptor 1 (PKR1) antagonists may be functionally assessed by measurement of change in intracellular calcium levels induced by Gq mediated increase in inositol triphosphate (IP3) levels. The ability of a compound to block the intracellular release of calcium mediated by PK1 in RBL2H3 cells expressing human PKR1 receptors is determined as a measure of the compound's antagonist activity in vitro.
Approximately 10,000 cells per assay well are seeded in normal culture medium in a 384 well plate (Corning). […]
To test for antagonist activity, test compounds at a final concentration range between 0.32 nM-10 μM (diluted in assay buffer) are added to the assay wells and allowed to incubate for 10 minutes prior to stimulation with PK1. After incubation with test compounds the assay plate is placed in a FLIPR Tetra (Molecular Devices) and PK1 (diluted in assay buffer) is added at the determined EC80 concentration (final). Ligand-dependent changes in intracellular calcium levels are determined by measuring changes in fluorescence of the dye at […] following excitation at 485 nm.

human PKR1 receptors, sequence (Q8TCW9 whole entry): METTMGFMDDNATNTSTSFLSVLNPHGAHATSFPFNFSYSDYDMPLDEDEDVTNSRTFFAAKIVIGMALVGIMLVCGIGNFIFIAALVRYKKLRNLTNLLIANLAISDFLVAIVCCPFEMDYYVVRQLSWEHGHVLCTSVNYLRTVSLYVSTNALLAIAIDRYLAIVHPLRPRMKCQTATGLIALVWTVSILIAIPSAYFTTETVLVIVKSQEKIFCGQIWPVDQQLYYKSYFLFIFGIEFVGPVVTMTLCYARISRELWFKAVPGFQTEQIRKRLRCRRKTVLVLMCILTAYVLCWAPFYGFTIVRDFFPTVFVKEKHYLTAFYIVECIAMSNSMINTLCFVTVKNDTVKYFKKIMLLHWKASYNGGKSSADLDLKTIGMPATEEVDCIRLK

`Cc1n[nH]c(C)c1S(=O)(=O)N1CCC(C(C#N)c2ccc(Cl)cc2F)CC1` (stereo not shown) [Example 92, 2-(4-Chloro-2-fluorophenyl)-2-(1-((3,5-dimethyl-1H-pyrazol-4-yl)sulfonyl)piperidin-4-yl)acetonitrile] showed an IC50 of 1850 nM.
